The values below come from article PMC6767220, “Active Anti-Inflammatory and Hypolipidemic Derivatives of Lorazepam” (Molecules, 2019).

The target of one series is T1, soybean lipoxygenase-1 (Glycine max, UniProt P08170).
T1 sequence (P08170 1-839): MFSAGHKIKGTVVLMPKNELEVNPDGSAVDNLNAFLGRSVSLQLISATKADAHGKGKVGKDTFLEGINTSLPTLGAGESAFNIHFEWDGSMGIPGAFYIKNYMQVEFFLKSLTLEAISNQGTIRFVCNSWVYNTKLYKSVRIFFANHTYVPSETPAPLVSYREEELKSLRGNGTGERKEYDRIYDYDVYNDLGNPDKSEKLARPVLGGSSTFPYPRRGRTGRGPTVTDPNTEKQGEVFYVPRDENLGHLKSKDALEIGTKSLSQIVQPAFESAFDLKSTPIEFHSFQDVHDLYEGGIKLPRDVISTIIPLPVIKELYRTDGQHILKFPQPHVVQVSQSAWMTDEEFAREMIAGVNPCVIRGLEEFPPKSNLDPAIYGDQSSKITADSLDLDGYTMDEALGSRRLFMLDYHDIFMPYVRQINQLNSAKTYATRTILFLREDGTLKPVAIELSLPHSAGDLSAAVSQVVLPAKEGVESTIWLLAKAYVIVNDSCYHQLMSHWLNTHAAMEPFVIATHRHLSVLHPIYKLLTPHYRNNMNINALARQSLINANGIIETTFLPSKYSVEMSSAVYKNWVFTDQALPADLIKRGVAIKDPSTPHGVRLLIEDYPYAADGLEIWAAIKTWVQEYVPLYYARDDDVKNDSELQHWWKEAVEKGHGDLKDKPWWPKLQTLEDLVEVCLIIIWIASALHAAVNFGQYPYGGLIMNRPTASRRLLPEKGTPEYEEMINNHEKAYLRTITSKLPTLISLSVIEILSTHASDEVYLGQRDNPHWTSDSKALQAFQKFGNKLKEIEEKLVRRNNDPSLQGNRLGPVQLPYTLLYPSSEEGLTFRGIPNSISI
The series can be described thus: Inhibition of soybean lipoxygenase. The conditions noted are these: sodium linoleate 0.1 mM, 7 min incubation; for IC50: read-out: Lipoxygenase IC50. The format is biochemical. How it is done: The reaction mixture contained the test compounds dissolved in ethanol and soybean lipoxygenase (250 U/mL) in Tris buffer (pH 9). The reaction was initiated by the addition of sodium linoleate (0.1 mM) and monitored for 7 min at 28 °C, by recording the absorbance of a conjugated diene structure at 234 nm. For the estimation of the type of inhibition, the above experiments were repeated, using sodium linoleate at 1 mM, which is higher than the saturating substrate concentration.

Series [1] concerns inflammation. Set-up: method as in PMID 25792646. The following applies: cited from earlier work.
The test system of series [2] is inflammation. The following applies: cited from earlier work.
Series [3] is described as follows: Interaction with the stable radical DPPH. The following applies: DPPH 200 µΜ, 30 min incubation. How it is done: Compounds (in absolute ethanol, final concentration 50–200 µM) were added to an equal volume of an ethanolic solution of DPPH (final concentration 200 µM) at room temperature (22 ± 2 °C). Absorbance (517 nm) was recorded after 30 min [22].
Series [4] concerns Triton WR1339 (tyloxapol) induced hyperlipidemia. Put plainly: Triton WR1339 (tyloxapol) induced hyperlipidemia: plasma TC, TG, LDL-C. The class given is in vivo. The following applies: ip, rat plasma, 24 h, tyloxapol 200 mg/kg i.p.; for inhibition in vivo at 150 µmol/kg: dose i.p. 150 µmol/kg; for inhibition in vivo at 50 µmol/kg: dose i.p. 50 µmol/kg.
Series [5] concerns carrageenan-induced rat paw oedema. The series can be described thus: Carrageenan-induced rat paw oedema. The class given is in vivo. The following applies: ip, i.p. 0.15 mmol/kg, 3.5 h post administration, vs controls, read-out: % Oedema Reduction. As to the method:
An aqueous solution of carrageenan was prepared (1% w/v) and 0.1 mL of this was injected i.d. into the right hind paw of female rats; the left paw served as control. The tested compounds (suspended in water with a few drops of Tween 80) were given intra peritoneally (i.p.) (0.15 mmol/kg) 5 min prior to the carrageenan injection. After 3.5 h the hind paws were weighed separately. The produced oedema was estimated as paw weight increase.

Series [6] relates to rat hepatic microsomal membrane lipid peroxidation. The series can be described thus: Inhibition of rat hepatic microsomal membrane lipid peroxidation induced by ferrous ascorbate. The class given is biochemical. The conditions noted are these: rat hepatic microsomal fraction, ferrous ascorbate, 45 min incubation. As to the method:
The incubation mixture contained heat-inactivated rat hepatic microsomal fraction, ascorbic acid (0.2 mM) in Tris–HCl/KCl buffer (pH 7.4) and the test compounds dissolved in dimethylsulphoxide. The reaction was initiated by FeSO4 (10 µM) and the mixture was incubated at 37 °C. Aliquots were taken at various time intervals for 45 min. Lipid peroxidation was assessed spectrophotometrically (535 against 600 nm) by the determination of 2-thiobarbituric acid (TBA) reactive material.

The mark [7] stands for this setting: read-out: % Reduction LDL-C (LDL cholesterol).
Setting [8] is: read-out: % Reduction TC (total cholesterol).
Where [9] appears, read: read-out: % Reduction TG (triglycerides).

Structures are written as SMILES. Read-outs that look alike come from different tables or passages of the source. Where only a bound is given, the exact number is not on record here.

On to `Cc1cc(C(C)(C)C)c(O)c(C(C)(C)C)c1` [BHT, 2,6-di-tert-butyl-4-methylphenol], for which, at soybean lipoxygenase-1, the IC50 was 192 µM. The “Anti-inflammatory action in vitro” value in the series on inflammation [1] is given as “lacks such action”. In the series with inflammation [2], the “Anti-inflammatory action in vivo” value is recorded as “lacks such action”.

As to `Cc1c(C)c2c(c(C)c1O)CCC(C)(C(=O)OC1N=C(c3ccccc3Cl)c3cc(Cl)ccc3NC1=O)O2` (stereo not drawn) [Compound 7, 7-Chloro-5-(2-chlorophenyl)-2-oxo-2,3-dihydro-1H-benzo[e][1,4]diazepin-3-yl 6-hydroxy-2,5,7,8-tetramethylchroman-2-carboxylate], the melting point lay within 138 to 144 °C. Moreover, in series [3] (compound 50 µΜ), the “Percent Interaction with DPPH” value amounted to 46%. Further, the “Percent Interaction with DPPH” value in series [3] (compound 100 µΜ) is 82%. In series [3] (compound 200 µΜ), the “Percent Interaction with DPPH” value is given as 91%. Also, the “Lipoxygenase IC50” value at soybean lipoxygenase-1 was “-”. In series [4] (setting [7]), the inhibition in vivo at 150 µmol/kg worked out at 69%. Besides, in series [4] (setting [8]), the inhibition in vivo at 150 µmol/kg is 72%. Also, the inhibition in vivo at 150 µmol/kg in series [4] (setting [9]) was determined as 64%. Further, the inhibition in vivo at 150 µmol/kg in series [5] amounted to 56%. The IC50 in series [6] is 2.5 µM.

On to `CC(C)(C)c1cc(C=CC(=O)OC2N=C(c3ccccc3Cl)c3cc(Cl)ccc3NC2=O)cc(C(C)(C)C)c1O` (stereo not drawn) [Compound 8, (E)-7-Chloro-5-(2-chlorophenyl)-2-oxo-2,3-dihydro-1H-benzo[e][1,4]diazepin-3-yl 3-(3,5-di-tert-butyl-4-hydroxyphenyl)acrylate], for which the melting point is 274 °C. In addition, in series [3] (compound 50 µΜ), the “Percent Interaction with DPPH” value is 30%. Further, the “Percent Interaction with DPPH” value in series [3] (compound 100 µΜ) was determined as 49%. The “Percent Interaction with DPPH” value in series [3] (compound 200 µΜ) came to 90%. Besides, at soybean lipoxygenase-1, the IC50 came out at 44 µM. In series [4] (setting [7]), the inhibition in vivo at 50 µmol/kg is 44% and the inhibition in vivo at 150 µmol/kg amounted to 63%. Moreover, in series [4] (setting [8]), the inhibition in vivo at 50 µmol/kg came out at 59% and the inhibition in vivo at 150 µmol/kg is 81%. For the same compound, in series [4] (setting [9]), the inhibition in vivo at 50 µmol/kg turned out to be 52% and the inhibition in vivo at 150 µmol/kg came out at 66%. The inhibition in vivo at 150 µmol/kg in series [5] was found to be 37%. Also, the IC50 in series [6] was over 100 µM.

With `O=C(O)CCCC[C@@H]1CCSS1` [lipoic acid, (R)-5-(1,2-dithiolan-3-yl)pentanoic acid], the Anti-inflammatory action entry in the series on inflammation [2] (at similar doses) was “weak anti-inflammatory agent”.
